This note sets out measurements from US7812032B2 (Abbott Laboratories, priority 2006, dated 2010).

Series [1] can be described thus: pharmacokinetics after single intravenous dose in cynomolgus monkey. As to conditions: 2.5 mg/kg intravenous. Format: in vivo.
In series [2] the test system is neointimal hyperplasia in porcine coronary arteries containing stents. The experiment in a line: porcine coronary stent model, A-179578 eluted from BiodivYsio PC coronary stent, 28 days. Format: in vivo. The source says: The control stents are polymer-coated without drugs. This is important, for the polymer itself must not stimulate neointimal hyperplasia to a substantial degree. As the eluted drug disappears, an inflammatory response to the polymer could conceivably result in a late “catch-up phenomenon” where the restenosis process is not stopped, but instead slowed. This phenomenon would result in restenosis at late dates in human subjects.
Stents were implanted in two blood vessels in each pig. Pigs used in this model were generally 2-4 months old and weighed 30-40 kg. Two coronary stents were thus implanted in each pig by visually assessing a “normal” stent:artery ratio of 1.1-1.2.
Beginning on the day of the procedure, pigs were given oral aspirin (325 mg daily) and continued for the remainder of their course. General anesthesia was achieved by means of intramuscular injection followed by intravenous ketamine (30 mg/kg) and xylazine (3 mg/kg). Additional medication at the time of induction included atropine (1 mg) and flocillin (1 g) administered intramuscularly. During the stenting procedure, an intraarterial bolus of 10,000 units of heparin was administered.
Arterial access was obtained by cutdown on the right external carotid and placement of an 8F sheath. After the procedure, the animals were maintained on a normal diet without cholesterol or other special supplementation.
The BiodivYsio stent was used with nominal vessel target size of 3.0 mm. Two coronary arteries per pig were assigned at random to deployment of the stents. The stent was either a drug eluting stent (polymer plus drug stent) or a stent coated with a polymer only (polymer only stent). The stents were delivered by means of standard guide catheters and wires. The stent balloons were inflated to appropriate sizes for less than 30 seconds.
Each pig had one polymer only stent and one polymer plus drug stent placed in separate coronary arteries, so that each pig would have one stent for drug and one for control. A sample size of 20 pigs total was chosen to detect a projected difference in neointimal thickness of 0.2 mm with a standard deviation of 0.15 mm, at a power of 0.95 and […] 0.02.
Animals were euthanized at 28 days for histopathologic examination and quantification. Following removal of the heart from the perfusion pump system, the left atrial appendage was removed for access to the proximal coronary arteries. Coronary arterial segments with injuries were dissected free of the epicardium. Segments containing lesions were isolated, thereby allowing sufficient tissue to contain uninvolved blood vessel at either end. […]
The severity of vessel injury and the neointimal response were measured by calibrated digital microscopy. […]

The nature of series [3]: rate of release of A-179578 from 316L stainless steel coupons coated with PC polymer. As to conditions: PC polymer coated 316L coupons, 0.01 M phosphate buffer pH 6.0. It is filed as physicochemical. The source says:
Rubber septa from lids from HPLC vials were removed from the vials and placed into glass vials so that the “Teflon” side faced up. These septa served as supports for the test samples. The test samples were 316L stainless steel coupons that had been previously coated with a biocompatible polymer containing phosphorylcholine side groups (PC polymer). Coronary stents are commonly made of 316L stainless steel and can be coated with the PC polymer to provide a depot site for loading drugs. The coated coupons, which serve to simulate stents, were placed onto the septa. By using a glass Hamilton Syringe, a solution of A-179578 and ethanol (10 μl) was applied to the surface of each coupon. The solution contained A-179578 (30.6 mg) dissolved in 100% ethanol (3.0 ml). The syringe was cleaned with ethanol between each application. The cap to the glass vial was placed on the vial loosely, thereby assuring proper ventilation. The coupon was allowed to dry for a minimum of 1.5 hours. Twelve (12) coupons were loaded in this way, six being used to determine the average amount of drug loaded onto the device and six being used to measure the time needed to release the drug from the devices.
The coupon was placed onto a 5210 Branson sonicator for one hour. The coupon was then removed from the solution, and the solution was assayed by HPLC.
The time release studies were performed by immersing and removing the individual coupons from fresh aliquots (10.0 ml) of 0.01 M phosphate buffer at a pH of 6.0 at each of the following time intervals; 5, 15, 30 and 60 minutes. For the remaining time points of 120, 180, 240, 300, 360 minutes, volumes of 5.0 ml of buffer were used. To facilitate mixing during the drug release phase, the samples were placed onto a Eberbach shaker set at low speed. All solution aliquots were assayed by HPLC after the testing of the last sample was completed.
The HPLC analysis was performed with a Hewlett Packard series 1100 instrument having the following settings: Injection Volume is 100 μl; Acquisition Time is 40 minutes; Flow Rate is 1.0 ml/min; Column Temperature is 40 degrees Celsius; Wavelength is 278 nm; Mobile Phase is 65% Acetonitrile/35% H2O; and Column is YMC ODS-A S5 μm, 4.6×250 mm (Part No. A12052546WT).

For series [4], the system named is in-stent neointima formation in coronary arteries of adult miniature swine. Kind of series: safety and efficacy of ABT-578 dosages on in-stent neointima formation, BiodivYsio OC stent in swine. Format: in vivo, Yucatan miniature swine. On the procedure: The purpose of this example was to evaluate the safety and efficacy of different drug dosages on neointima formation. […] In-stent neointima formation was measured at […] time intervals; 3 days, 1 month, and 3 months in the coronary arteries of adult miniature swine. Forty (40) animals were studied at each time interval (10 animals per dose). Each animal received one drug-coated stent and one control stent. The control stent contained no drug.
Potential local tissue toxicity was assessed at all time intervals by examining histopathologic changes in the stented region, adjacent coronary segments, perivascular tissue, and subserved myocardium. The mortality, angiographic implant and restudy data, histomorphometry data, and stent site histopathology were studied.

A short description of series [5]: loading and release of ABT-578 from 15 mm BiodivYsio drug delivery stents. Format: physicochemical. As to conditions: 15 mm BiodivYsio stents, 0.01 M phosphate buffer pH 6.0. As for the experimental part:
Twelve individual polymer-coated stents were placed on fixtures designed to hold the stent in a vertical position and the stents were immersed vertically in the drug solution for five minutes. The stents and fixtures were removed from the vials and excess drug solution was blotted away by contacting the stents with an absorbant material. The stents were then allowed to dry in air for 30 minutes in an inverted vertical position.
The stents were removed from the fixtures, and each stent was placed into 50/50 acetonitrile/phosphate buffer (pH 5.1, 2.0 ml) and sonicated for one hour. The stents were removed from the solution and solutions were assayed for concentration of drug, which allowed calculation of the amount of drug originally on the stents. This method was independently shown to remove at least 95% of the drug from the stent coating. On average, the stents contained 60 micrograms of drug ±20 micrograms.
The drug-loaded stents were placed on the fixtures and placed into 0.01 M phosphate buffer (pH=6.0, 1.9 ml) in individual vials. These samples were placed onto an Eberbach shaker set at low speed to provide back-and-forth agitation. To avoid approaching drug saturation in the buffer, the stents were transferred periodically to fresh buffer vials at the following points: 15, 30, 45, 60, 120, 135, 150, 165, 180, 240, 390 minutes. The dissolution buffer vials were assayed by HPLC for the drug concentration at the end of the drug release period studied. The data, represented as % cumulative release of the drug as a function of time, is shown in tabular form below: […]

The subject of series [6] is human mixed lymphocyte reaction (MLR). Kind of series: human mixed lymphocyte reaction (MLR) assay. It is filed as cell-based. As to conditions: Homo sapiens, Lymphocyte; read-out: Human MLR IC50 ± S.E.M.
Where [7] appears, read: porcine coronary artery, 28 days.
Where [8] appears, read: one month, dose groups 3 and 4 vs control.

As for `CO[C@H]1C[C@@H]2CC[C@@H](C)[C@@](O)(O2)C(=O)C(=O)N2CCCC[C@H]2C(=O)O[C@H]([C@H](C)C[C@@H]2CC[C@H](n3ncnn3)[C@H](OC)C2)CC(=O)[C@H](C)/C=C(\C)[C@@H](O)[C@@H](OC)C(=O)[C@H](C)C[C@H](C)/C=C/C=C/C=C/1C` [Example 1B, 42-(2-tetrazolyl)-rapamycin], the “terminal elimination half-life (t1/2) compared to rapamycin” value in series [1] is “substantially shorter”.

In the case of `COC1CC2CCC(C)C(O)(O2)C(=O)C(=O)N2CCCCC2C(=O)OC(C(C)CC2CCC(n3cnnn3)C(OC)C2)CC(=O)C(C)C=C(C)C(O)C(OC)C(=O)C(C)CC(C)C=CC=CC=C1C` (stereo not shown) [Example 1C, 42-(1-tetrazolyl)-rapamycin], the “lumen area vs polymer only stent” value in series [2] (setting [7]) is given as “greater lumen area”. Moreover, in series [2] (setting [7]), the “neointimal area vs polymer only stent” value is reported as “lower neointimal area”. Also, the “neointimal thickness vs polymer only stent” value in series [2] (setting [7]) is on record as “lower neointimal thickness”. The “neointimal hyperplasia” value in series [2] (stent with polymer placed in porcine coronary artery) is on record as “reduction in neointimal hyperplasia”. Besides, the “Percent Release” value was found to be 0.00 in series [3] (0.00 min); 1.87 in series [3] (5.00 min); 2.97 in series [3] (15.00 min); 3.24 in series [3] (30.00 min); 3.29 in series [3] (60.00 min); 4.36 in series [3] (180.00 min). Moreover, the entries for the “Percent Release” value in series [3] (240.00 min), in series [3] (300.00 min) and in series [3] (360.00 min) were 4.37, 6.34 and 7.88, respectively.

`CO[C@H]1C[C@@H]2CC[C@@H](C)[C@@](O)(O2)C(=O)C(=O)N2CCCC[C@H]2C(=O)O[C@H]([C@H](C)C[C@@H]2CC[C@H](n3cnnn3)[C@H](OC)C2)CC(=O)[C@H](C)/C=C(\C)[C@@H](O)[C@@H](OC)C(=O)[C@H](C)C[C@H](C)/C=C/C=C/C=C/1C` [Example 1C, 42-(1-tetrazolyl)-rapamycin]: the “local coronary arterial wall toxicity (medial necrosis or stent malapposition)” value in series [4] (any dose group incl. approximately 27 μg/mm, any time interval) is listed as “no local coronary arterial wall toxicity”. The “histologic % stenosis” value in series [4] (one month, dose group 3 vs control) was “tendency towards decreased”. Further, the “Intima area normalized to injury score” value in series [4] (one month, dose groups 3 and 4 (10 and 27 μg/mm) vs control) was “significantly decreased”. For the same compound, the “absolute intima area” value in series [4] (setting [8]) is listed as “trends for decreases”. For the same compound, in series [4] (setting [8]), the “intima thickness” value is on record as “trends for decreases”. The “vessel wall toxicity” value in series [4] (one month, even at the highest dose (27 μg/mm)) is “no evidence of vessel wall toxicity”. For the same compound, the “neointima formation in stented coronary arteries” value in series [4] (one-month group, locally eluted) is given as “significant inhibitory effect”. Moreover, the “endothelial recovery over the stent struts” value in series [4] (three days after implant, regardless of dosage) is reported as “did not appear retarded”. The “neointima cross-sectional area and % area stenosis of the lumen” value in series [4] (three-month period) was “weak trends for decreases”. The “histomorphometric parameters of stented coronary arterial dimension” value in series [4] (three-month period, between the dose groups) is reported as “no significant differences”. In series [1], the “terminal elimination half-life (t1/2) compared to rapamycin” value was “substantially shorter”. Moreover, the “% Cumulative Release of Drug” value in series [5] (15 min) came to 0.3%; in series [5] (30 min) it was 1.1%; in series [5] (45 min), 2.1%; in series [5] (60 min), 3.2%; in series [5] (120 min), 4.3%; in series [5] (135 min), 5.9%. For the same compound, the “% Cumulative Release of Drug” value in series [5] (150 min) was determined as 6.3%; in series [5] (165 min), 6.8%; in series [5] (180 min) it was 7.4%; in series [5] (240 min), 10.8%; in series [5] (390 min), 13.2%.

The term IC50 denotes the concentration needed to halve the response being measured. For `CO[C@H]1C[C@@H]2CC[C@@H](C)[C@@](O)(O2)C(=O)C(=O)N2CCCC[C@H]2C(=O)O[C@H]([C@H](C)C[C@@H]2CC[C@@H](O)[C@H](OC)C2)CC(=O)[C@H](C)/C=C(\C)[C@@H](O)[C@@H](OC)C(=O)[C@H](C)C[C@H](C)/C=C/C=C/C=C/1C` [Rapamycin], the IC50 in series [6] was 0.91 ± 0.36 nM.
